Assay results reported in paper PMC5937873, “Improving the biopharmaceutical attributes of mangiferin using vitamin E-TPGS co-loaded self-assembled phosholipidic nano-mixed micellar systems” (Drug Delivery and Translational Research, 2018).
In brackets after ≈: the same amount, converted by molar mass. Like-named read-outs stand apart in the source and are kept apart here. One block for each molecule: values may come before it.

What was measured:
MDR1 transporters = target: T1, MDR1 transporters (Homo sapiens, UniProt P08183); assay: P-gp efflux assay with Rh-123 dye (multi-drug resistance dye efflux kit); format: cell-based; settings: MCF-7 and MDA-MB-231 cells, 37 °C
T1 construct: Overexpression of P-gp in MCF-7 and MDA-MB-231 cells is well-documented in literature; endogenous in cells; host or cells: MCF-7 and MDA-MB-231 cells
Protocol: (§1) Overexpression of P-gp in MCF-7 and MDA-MB-231 cells is well-documented in literature. […] For evaluating the P-gp efflux, the multi-drug resistance dye efflux assay kit (Chemicon International, USA) was employed in which the MCF-7 and MDA-MB-231 cells (2.5 × 10^5) were treated with Rh-123 and DiOC2 dyes, with or without vinblastine. To assess the inhibitory activity of SPNMS on MDR1 transporters, these were incubated with Rh-123 alone, Rh-123 with SPNMS, and Rh-123 with vinblastine at 37 °C, along with Rh-123 at 4 °C. Likewise, to estimate the potential of the developed SPNMS formulation for blocking the activity of BCRP transporters, DiOC2 dye was employed. On similar heels, MCF-7 and MDA-MB-231 cells (2.5 × 10^5) were incubated with DiOC2 alone, DiOC2 with SPNMS, and DiOC2 with vinblastine at 37 °C, along with DiOC2 at 4 °C. The fluorescence intensity was measured in a TECAN fluorescence microplate reader at an excitation wavelength of 485 nm and an emission wavelength of 530 nm.

BCRP transporters = target: T2, BCRP transporters (Homo sapiens, UniProt Q9UNQ0); assay: P-gp efflux assay with DiOC2 dye (multi-drug resistance dye efflux kit); format: cell-based; settings: MCF-7 and MDA-MB-231 cells, 37 °C
T2 construct: endogenous in cells; host or cells: MCF-7 and MDA-MB-231 cells
T2 sequence (Q9UNQ0 1-655): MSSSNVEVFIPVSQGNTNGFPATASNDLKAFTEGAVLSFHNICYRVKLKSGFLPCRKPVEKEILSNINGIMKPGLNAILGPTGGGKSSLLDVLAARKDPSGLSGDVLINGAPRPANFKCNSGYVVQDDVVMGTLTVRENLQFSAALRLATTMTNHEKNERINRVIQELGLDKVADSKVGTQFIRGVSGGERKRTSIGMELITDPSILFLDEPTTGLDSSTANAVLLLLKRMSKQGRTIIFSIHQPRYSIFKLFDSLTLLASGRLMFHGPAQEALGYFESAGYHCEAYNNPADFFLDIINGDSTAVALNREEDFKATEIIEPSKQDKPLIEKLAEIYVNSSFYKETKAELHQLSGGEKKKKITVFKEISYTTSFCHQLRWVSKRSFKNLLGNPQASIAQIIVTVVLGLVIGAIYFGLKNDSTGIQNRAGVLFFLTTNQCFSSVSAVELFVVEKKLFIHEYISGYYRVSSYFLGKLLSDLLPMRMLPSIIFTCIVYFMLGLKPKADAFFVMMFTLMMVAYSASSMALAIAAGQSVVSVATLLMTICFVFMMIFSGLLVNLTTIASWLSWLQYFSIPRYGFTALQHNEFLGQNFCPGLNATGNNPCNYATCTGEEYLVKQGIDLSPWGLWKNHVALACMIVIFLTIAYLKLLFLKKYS
Protocol: as §1

[1] = excised rat small intestine, 2 h
[2] = Equilibrium solubility studies in emulgents and cosolvents; format: physicochemical; settings: 37 ± 1 °C
Protocol: Solubility studies for Mgf were carried out for 72 h at 37 ± 1 °C in a water bath by adding an excess amount of drug in various water-soluble emulgents, viz. Acconon CC-6, Cremophor RH40, Cremophor EL, Vitamin E TPGS, Labrafil […], Labrasol, Tween 80 and Tween 40. Cosolvents employed included Transcutol HP, PEG 200, and propylene glycol. Aliquots of the filtrate were suitably diluted with methanol and analyzed using the HPTLC method previously reported by the authors at a λmax of 262 nm.

[3] = In vivo pharmacokinetic studies; settings: rat, oral, Mgf equivalent to 30 mg/kg
Protocol: In vivo pharmacokinetic studies were conducted by sparse sampling designed experiment. The formulations were administered through oral gavage on two groups of rats (n = 60). Within each group, five subgroups were designated (5 × 6 = 30 animals were employed in one group) and from one animal maximum two blood samples were withdrawn during the entire study alternating between left and right eyes. Group I was administered plain Mgf solution and Group II was given Mgf-SPNMS containing Mgf equivalent to 30mg/Kg. The animals were anesthetized employing isoflurane, and the blood (200 μL) was withdrawn from the retro-orbital plexus of rats at 0.5, 1, 2, 3, 6, 12, 18, 24, and 36 h, in heparin-coated micro-centrifuge tubes.
Further, plasma was harvested by centrifugation at 10,000 rpm (559 g) for 5 min and analyzed for Mgf using the previously reported and validated HPTLC method. The data were analyzed by non-compartmental and compartmental pharmacokinetic modeling approaches using the WinNonlin software, version 5.0 ([…]). Statistical tests like one-way/two-way ANOVA followed by post hoc multiple comparison tests, and Student’s independent t test has been applied wherever applicable.

[4] = Biopharmaceutics classification (BCS); settings: by virtue of low aqueous solubility and lipophilicity
vital organs = assay: Histopathology of vital organs (in vivo toxicity); settings: SD female rats, 30 mg/kg Mgf oral gavage, three times per week for 4 weeks
whole blood = assay: Hematological studies (whole blood count, RBC morphology); settings: SD female rats, 30 mg/kg Mgf oral gavage, three times per week for 4 weeks

T1 sequence (P08183 whole entry): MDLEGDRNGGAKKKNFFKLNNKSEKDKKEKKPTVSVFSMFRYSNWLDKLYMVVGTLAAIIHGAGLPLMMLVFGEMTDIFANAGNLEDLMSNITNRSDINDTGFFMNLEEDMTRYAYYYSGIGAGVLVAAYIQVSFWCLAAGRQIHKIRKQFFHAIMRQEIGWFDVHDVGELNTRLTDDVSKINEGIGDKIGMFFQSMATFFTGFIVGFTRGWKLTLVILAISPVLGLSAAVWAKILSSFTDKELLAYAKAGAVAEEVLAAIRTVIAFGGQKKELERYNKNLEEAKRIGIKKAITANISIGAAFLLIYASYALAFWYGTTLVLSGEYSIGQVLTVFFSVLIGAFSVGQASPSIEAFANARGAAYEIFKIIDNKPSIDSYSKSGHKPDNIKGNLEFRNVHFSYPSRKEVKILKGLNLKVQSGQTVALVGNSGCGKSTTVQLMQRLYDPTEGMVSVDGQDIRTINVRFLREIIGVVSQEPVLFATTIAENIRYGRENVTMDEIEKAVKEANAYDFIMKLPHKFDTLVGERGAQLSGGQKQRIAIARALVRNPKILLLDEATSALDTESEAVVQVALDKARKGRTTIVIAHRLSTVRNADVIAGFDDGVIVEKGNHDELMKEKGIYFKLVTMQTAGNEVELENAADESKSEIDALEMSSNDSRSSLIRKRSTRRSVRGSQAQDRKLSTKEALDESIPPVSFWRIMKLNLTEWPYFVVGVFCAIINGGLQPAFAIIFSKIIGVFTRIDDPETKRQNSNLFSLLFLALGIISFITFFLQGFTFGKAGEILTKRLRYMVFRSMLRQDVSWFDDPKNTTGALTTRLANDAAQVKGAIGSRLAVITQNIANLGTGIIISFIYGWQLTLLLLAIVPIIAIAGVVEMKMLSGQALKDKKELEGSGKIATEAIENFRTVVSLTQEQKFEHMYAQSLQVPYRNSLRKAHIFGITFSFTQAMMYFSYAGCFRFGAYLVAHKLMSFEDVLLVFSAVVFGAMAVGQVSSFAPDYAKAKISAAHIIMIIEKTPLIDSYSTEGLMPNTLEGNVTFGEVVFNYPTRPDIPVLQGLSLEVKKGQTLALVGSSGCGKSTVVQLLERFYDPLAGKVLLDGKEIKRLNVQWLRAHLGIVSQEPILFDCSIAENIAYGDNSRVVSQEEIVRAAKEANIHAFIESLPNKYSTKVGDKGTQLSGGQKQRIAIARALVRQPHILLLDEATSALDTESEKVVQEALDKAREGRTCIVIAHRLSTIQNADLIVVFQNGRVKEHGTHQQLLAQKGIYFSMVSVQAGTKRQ

Compound: CC[C@]1(O)C[C@@H]2CN(CCc3c([nH]c4ccccc34)[C@@](C(=O)OC)(c3cc4c(cc3OC)N(C)[C@H]3[C@@](O)(C(=O)OC)[C@H](OC(C)=O)[C@]5(CC)C=CCN6CC[C@]43[C@@H]65)C2)C1 [vinblastine]
- inhibition of Rh-123 efflux (fluorescence intensity) (MDR1 transporters): higher fluorescence intensity without any efflux
- inhibition of DiOC2 efflux (fluorescence intensity) (BCRP transporters): higher fluorescence intensity without any efflux

- intestinal permeation (CLSM) [1]: does not permeate through the intestine
Compound: COC(=O)c1ccccc1-c1c2ccc(=N)cc-2oc2cc(N)ccc12 [Rh-123, Rhodamine 123]

- solubility thermodynamic at 72 h ([2]; PEG 200 (cosolvent), highest among cosolvents, read-out: equilibrium solubility in PEG 200): 10.2 mg/mL (≈ 24.2 mM)
- solubility thermodynamic at 72 h ([2]; vitamin E TPGS (water-soluble emulgent), maximum among surfactants, read-out: equilibrium solubility in vitamin E TPGS): 17.6 mg/mL (≈ 41.8 mM)
- Cmax ([3]; plasma): 297 ± 56.4 ng/mL
- MRT ([3]; plasma): 8.16 ± 1.73 h
- Tmax ([3]; plasma): 3.08 ± 0.18 h
- Cl [3]: 2543.44 ± 453.42 mL/h
- Ka [3]: 0.32 ± 0.09 h⁻¹
- BCS class [4]: BCS class IV
- HCT (whole blood): 43.9%
- HGB (whole blood): 14.54 g/dL
- PLT count (whole blood): AG* 589 × 10^3/μL
- RBC count (whole blood): 8.21e+06 µL⁻¹
- WBC count (whole blood): 16400 µL⁻¹
Compound: O=c1c2cc(O)c(O)cc2oc2cc(O)c([C@@H]3O[C@H](CO)[C@@H](O)[C@H](O)[C@H]3O)c(O)c12 [Mgf, mangiferin]
- histopathological change(s) in vital organs (vital organs): no histopathological change(s)
